Measurements: patent publication US20220110846A1, “EMOLLIENT AND CLEANSING AGENT” (Oleon NV, priority 2020, published 2022)

Columns and labels:
[1] = test system: Candida albicans, DSM 1386; assay: Minimum inhibitory concentration (ISO 20776-1:2019); type: cell-based
Method: (§1) Preservatives used were phenoxyethanol and benzyl alcohol.
(§2) Micro-organisms used were: • Staphylococcus aureus, DSM 799; • Candida albicans, DSM 1386.
(§3) Two samples were prepared comprising each 90 wt % of combination 1 and 10 wt % of respectively phenoxyethanol and benzyl alcohol.
(§4) Two comparative samples comprising 100 wt % of respectively phenoxyethanol and benzyl alcohol were also prepared.
(§5) To evaluate the boosting antimicrobial property of the combination according to the invention, the minimum inhibitory concentration (MIC) was determined according to a method based on standard ISO 20776-1:2019.

[2] = test system: Staphylococcus aureus, DSM 799; assay: as above; type: cell-based
Method: as §1, §2, §3, §4, §5

MIC, Candida albicans [1]: 0.30%
MIC, Staphylococcus aureus [2]: 0.40%
Compound: OCc1ccccc1 [Benzyl alcohol, benzyl alcohol]
